Source: US10131652B2, “Pyrimidinyloxy benzene derivatives as herbicides” (E. I. DU PONT DE NEMOURS AND COMPANY, priority 2014, dated 2018)
Like-named read-outs stand apart in the source and are kept apart here.

Columns and labels:
Test in all cases: Test D pre-/postemergence plant response
Type in all cases: in vivo
[1] = tested on: johnsongrass (Sorghum halepense); conditions: Sorghum halepense; for pest or weed control at 125 g/ha: 125 g ai/ha; for pest or weed control at 250 g/ha: 250 g ai/ha
Excerpt: (§1) Seeds of plant species selected from blackgrass (Alopecurus myosuroides), Italian ryegrass (Lolium multiflorum), winter wheat (Triticum aestivum), galium (catchweed bedstraw, Galium aparine), corn (Zea mays), large (Lg) crabgrass (Digitaria sanguinalis), giant foxtail (Setaria faberii), johnsongrass (Sorghum halepense), lambsquarters (Chenopodium album), morningglory (Ipomoea coccinea), yellow nutsedge (Cyperus esculentus), pigweed (Amaranthus retroflexus), ragweed (common ragweed, Ambrosia elatior), soybean (Glycine max), bamyardgrass (Echinochloa crus-galli), oilseed rape (Brassica napus), waterhemp (common waterhemp, Amaranthus rudis), and velvetleaf (Abutilon theophrasti) were planted into a blend of loam soil and sand and treated preemergence with test chemicals formulated in a non-phytotoxic solvent mixture which included a surfactant. At the same time, plants selected from these crop and weed species and also kochia (Kochia scoparia), wild oat (Avena fatua), and chickweed (common chickweed, Stellaria media) were planted in pots containing Redi-Earth® planting medium (Scotts Company, 14111 Scottslawn Road, Marysville, Ohio 43041) comprising spaghnum peat moss, vermiculite, wetting agent and starter nutrients and treated with postemergence applications of test chemicals formulated in the same manner. Plants ranged in height from 2 to 18 cm (1- to 4-leaf stage) for postemergence treatments. Treated plants and controls were maintained in a greenhouse for 13 to 15 days, after which time all species were compared to controls and visually evaluated. Plant response ratings, summarized in Table D, are based on a scale of 0 to 100 where 0 is no effect and 100 is complete control. A dash (-) response means no test result.

[2] = tested on: barnyardgrass (Echinochloa crus-galli); conditions: Echinochloa crus-galli; for pest or weed control at 31 g/ha: 31 g ai/ha, scale 0 to 100 (0 no effect, 100 complete control); for pest or weed control at 62 g/ha: 62 g ai/ha; for pest or weed control at 125 g/ha: 125 g ai/ha; for pest or weed control at 250 g/ha: 250 g ai/ha
Excerpt: as §1

[3] = tested on: waterhemp (common waterhemp, Amaranthus rudis); conditions: Amaranthus tuberculatus; for pest or weed control at 31 g/ha: 31 g ai/ha; for pest or weed control at 62 g/ha: 62 g ai/ha; for pest or weed control at 125 g/ha: 125 g ai/ha; for pest or weed control at 250 g/ha: 250 g ai/ha
Excerpt: as §1

[4] = tested on: yellow nutsedge (Cyperus esculentus); conditions: Cyperus; for pest or weed control at 31 g/ha: 31 g ai/ha; for pest or weed control at 62 g/ha: 62 g ai/ha; for pest or weed control at 125 g/ha: 125 g ai/ha; for pest or weed control at 250 g/ha: 250 g ai/ha
Excerpt: as §1

[5] = tested on: large (Lg) crabgrass (Digitaria sanguinalis); conditions: Digitaria sanguinalis; for pest or weed control at 31 g/ha: 31 g ai/ha; for pest or weed control at 62 g/ha: 62 g ai/ha; for pest or weed control at 125 g/ha: 125 g ai/ha; for pest or weed control at 250 g/ha: 250 g ai/ha
Excerpt: as §1

[6] = tested on: giant foxtail (Setaria faberii); conditions: Setaria faberi; for pest or weed control at 31 g/ha: 31 g ai/ha; for pest or weed control at 62 g/ha: 62 g ai/ha; for pest or weed control at 125 g/ha: 125 g ai/ha; for pest or weed control at 250 g/ha: 250 g ai/ha
Excerpt: as §1

[7] = tested on: pigweed (Amaranthus retroflexus); conditions: Amaranthus retroflexus; for pest or weed control at 31 g/ha: 31 g ai/ha; for pest or weed control at 62 g/ha: 62 g ai/ha; for pest or weed control at 125 g/ha: 125 g ai/ha; for pest or weed control at 250 g/ha: 250 g ai/ha
Excerpt: as §1

[8] = post-emergence, Postemergence, scale 0 to 100, 0 no effect, 100 complete control, read-out: Plant response rating, Johnsongrass
[9] = pre-emergence, Preemergence, read-out: Plant response rating (scale 0 to 100), Johnsongrass
[10] = post-emergence, Postemergence, scale 0 to 100, 0 no effect, 100 complete control, read-out: Plant response rating, Barnyardgrass
[11] = pre-emergence, Preemergence, read-out: Plant response rating (scale 0 to 100), Barnyardgrass
[12] = post-emergence, Postemergence, scale 0 to 100, 0 no effect, 100 complete control, read-out: Plant response rating, Waterhemp
[13] = pre-emergence, Preemergence, read-out: Plant response rating (scale 0 to 100), Waterhemp
[14] = pre-emergence, Preemergence, scale 0 to 100 (0 no effect, 100 complete control), read-out: Plant response rating, Waterhemp
[15] = post-emergence, Postemergence, scale 0 to 100, 0 no effect, 100 complete control, read-out: Plant response rating, Nutsedge, Yellow
[16] = pre-emergence, Preemergence, read-out: Plant response rating (scale 0 to 100), Nutsedge, Yellow
[17] = pre-emergence, Preemergence, scale 0 to 100 (0 no effect, 100 complete control), read-out: Plant response rating, Nutsedge, Yellow
[18] = post-emergence, Postemergence, scale 0 to 100, 0 no effect, 100 complete control, read-out: Plant response rating, Crabgrass, Large
[19] = pre-emergence, Preemergence, read-out: Plant response rating (scale 0 to 100), Crabgrass, Large
[20] = pre-emergence, Preemergence, scale 0 to 100 (0 no effect, 100 complete control), read-out: Plant response rating, Crabgrass, Large
[21] = post-emergence, Postemergence, scale 0 to 100, 0 no effect, 100 complete control, read-out: Plant response rating, Foxtail, Giant
[22] = pre-emergence, Preemergence, read-out: Plant response rating (scale 0 to 100), Foxtail, Giant
[23] = pre-emergence, Preemergence, scale 0 to 100 (0 no effect, 100 complete control), read-out: Plant response rating, Foxtail, Giant
[24] = post-emergence, Postemergence, scale 0 to 100, 0 no effect, 100 complete control, read-out: Plant response rating, Pigweed
[25] = pre-emergence, Preemergence, read-out: Plant response rating (scale 0 to 100), Pigweed
[26] = pre-emergence, Preemergence, scale 0 to 100 (0 no effect, 100 complete control), read-out: Plant response rating, Pigweed

FC(F)c1cc(-c2ccccc2Oc2ncc(Br)cn2)no1 [Compound 62, 5-bromo-2-[2-[5-(difluoromethyl)-3-isoxazolyl]phenoxy]pyrimidine]
pest or weed control at 125 g/ha [1, 8]: 75% | pest or weed control at 250 g/ha [1, 8]: 85% | pest or weed control at 125 g/ha [1, 9]: 90% | pest or weed control at 250 g/ha [1, 9]: 98% | pest or weed control at 31 g/ha ([1]; pre-emergence, Preemergence, 31 g ai/ha, scale 0 to 100 (0 no effect, 100 complete control), read-out: Plant response rating, Johnsongrass): 30% | pest or weed control at 62 g/ha ([1]; pre-emergence, Preemergence, 62 g ai/ha, scale 0 to 100 (0 no effect, 100 complete control), read-out: Plant response rating, Johnsongrass): 75% | pest or weed control at 31 g/ha ([2]; post-emergence, Postemergence, read-out: Barnyardgrass plant response rating): 50% | pest or weed control at 62 g/ha [2, 10]: 35% | pest or weed control at 125 g/ha [2, 10]: 30% | pest or weed control at 250 g/ha [2, 10]: 95% | pest or weed control at 62 g/ha [2, 11]: 98% | pest or weed control at 125 g/ha [2, 11]: 100% | pest or weed control at 250 g/ha [2, 11]: 100% | pest or weed control at 31 g/ha ([2]; pre-emergence, Preemergence, read-out: Plant response rating, Barnyardgrass): 50% | pest or weed control at 31 g/ha ([3]; post-emergence, Postemergence, scale 0 to 100 (0 no effect, 100 complete control), read-out: Waterhemp plant response rating): 98% | pest or weed control at 62 g/ha [3, 12]: 98% | pest or weed control at 125 g/ha [3, 12]: 98% | pest or weed control at 250 g/ha [3, 12]: 100% | pest or weed control at 125 g/ha [3, 13]: 100% | pest or weed control at 250 g/ha [3, 13]: 100% | pest or weed control at 31 g/ha [3, 14]: 100% | pest or weed control at 62 g/ha [3, 14]: 100% | pest or weed control at 31 g/ha ([4]; post-emergence, Postemergence, scale 0 to 100 (0 no effect, 100 complete control), read-out: Nutsedge, Yellow plant response rating): 5% | pest or weed control at 62 g/ha [4, 15]: 5% | pest or weed control at 125 g/ha [4, 15]: 5% | pest or weed control at 250 g/ha [4, 15]: 10% | pest or weed control at 125 g/ha [4, 16]: 10% | pest or weed control at 250 g/ha [4, 16]: 60% | pest or weed control at 31 g/ha [4, 17]: 0% | pest or weed control at 62 g/ha [4, 17]: 5% | pest or weed control at 31 g/ha ([5]; post-emergence, Postemergence, scale 0 to 100 (0 no effect, 100 complete control), read-out: Crabgrass, Large plant response rating): 55% | pest or weed control at 62 g/ha [5, 18]: 35% | pest or weed control at 125 g/ha [5, 18]: 50% | pest or weed control at 250 g/ha [5, 18]: 65% | pest or weed control at 125 g/ha [5, 19]: 100% | pest or weed control at 250 g/ha [5, 19]: 100% | pest or weed control at 31 g/ha [5, 20]: 95% | pest or weed control at 62 g/ha [5, 20]: 100% | pest or weed control at 31 g/ha ([6]; post-emergence, Postemergence, scale 0 to 100 (0 no effect, 100 complete control), read-out: Foxtail, Giant plant response rating): 25% | pest or weed control at 62 g/ha [6, 21]: 25% | pest or weed control at 125 g/ha [6, 21]: 20% | pest or weed control at 250 g/ha [6, 21]: 55% | pest or weed control at 125 g/ha [6, 22]: 100% | pest or weed control at 250 g/ha [6, 22]: 100% | pest or weed control at 31 g/ha [6, 23]: 95% | pest or weed control at 62 g/ha [6, 23]: 100% | pest or weed control at 31 g/ha ([7]; post-emergence, Postemergence, scale 0 to 100 (0 no effect, 100 complete control), read-out: Pigweed plant response rating): 98% | pest or weed control at 62 g/ha [7, 24]: 100% | pest or weed control at 125 g/ha [7, 24]: 100% | pest or weed control at 250 g/ha [7, 24]: 100% | pest or weed control at 125 g/ha [7, 25]: 100% | pest or weed control at 250 g/ha [7, 25]: 100% | pest or weed control at 31 g/ha [7, 26]: 100% | pest or weed control at 62 g/ha [7, 26]: 100%
